Experimental data published in US7517911B2, “3,4,5-trimethoxy phenyl-based ester compound and preparation method thereof and whitening cosmetic composition containing the same” (Amorepacific Corporation, priority 2001, dated 2009).

Key:
[1] = system: Mel-Ab cells; experiment: Melanin-inhibiting effect in the melanocytes (Dooley method); assay type: cell-based, C57BL/6; details: 10 ppm in culture medium, absorbance at 400 nm, compared with cells cultured without compound
[2] = system: rabbit skin; experiment: Test for skin irritation on animals (Draize P.I.I.); assay type: in vivo, rabbits; details: 1% diluted solution, 0.5 ml; for P.I.I.: measured 24 and 72 hours after application
Protocol: The hairs on the backs of six (6) healthy male rabbits were removed. After making areas of 2.5 cm×2.5 cm on the left and right sides of the back of each rabbit, nothing was applied on the left area of the back as control area, and 1% diluted solutions of the ester compounds of Examples 1˜6 (solvent was 1,3-butyleneglycol:ethanol=7:3) were applied on the right area of the back of the rabbits with an amount of 0.5 ml, one compound for each rabbit respectively. Irritations such as erythema, rash or edema were measured 24 hours and 72 hours after the application. In addition, the degree of irritation was determined according to the conventional, “P.I.I.” (Primary Irritation Index) of Draize, and the results are shown in Table 6.

[3] = system: guinea pig skin; experiment: Test for radiation toxicity (UVA); assay type: in vivo
Protocol: The hairs on the backs of ten (10) guinea pigs were removed. After fixing the pigs, the back was divided into six (6) areas each having 2.0 cm×2.0 cm area, three (3) areas on the left side and three (3) on the right side. Right side areas were control areas prevented from being radiated, and left side areas were radiation areas. 1% (w/v) diluted solutions of ester compounds of Examples 1˜6 were applied thereto with an equal amount of 50 μl respectively, while using vehicle (1,3-butyleneglycol:ethanol=7:3) as a negative control, and using 0.1% 8-MOP(methoxypsoralene) as a positive control. After 30 minutes later, left sides of the back of the pig was shielded from light by aluminum foil, and UVA(320˜380 nm) was radiated from 10 cm distant with an final energy of 15J/cm^2 by using ultraviolet radiation device (waldmann). The skin of the guinea pig was observed after 24, 48 and 72 hours later. The irritation was graded as shown in table 5 with 0˜4 grades according to the intensity of the erythema and edema, and the sum was calculated. In the evaluation, the maximum value of the measurement that performed after 24, 48 and 72 hours later was chosen, and then the Irritation Index of an animal skin was calculated according to mathematical formula 1, and finally, the Radiation Toxicity Index was calculated according to mathematical Formula 2. Irritation Index of an animal skin=(Σ maximum value of erythema index+Σ maximum value of edema index)/number of animals [Mathematical Formula 1] Radiation Toxicity Index=(Irritation Index of an animal skin in an area of UV radiation)−(Irritation Index of an animal skin in an area UV non-radiation) [Mathematical Formula 2]

[4] = system: human skin; experiment: Whitening effect on the human skin (UVB-induced pigmentation, Chromameter); assay type: in vivo; details: applied for 10 weeks after UVB, 12 male volunteers
Description: The brachia of twelve (12) healthy volunteers (males) were attached with opaque tape having 1.5 cm diameter holes, and then irradiated with UVB (ultraviolet rays B) in 1.5˜2 times the intensity of the minimum amount to form erythema for each volunteer, to induce pigmentation. After irradiating the UVB, 1% diluted solutions of the ester compounds of Examples 1˜6 (solvent was 1,3-butyleneglycol:ethanol=7:3) were applied on the above treated brachia for ten (10) weeks (the above 1% diluted solution was not applied on one brachium), and the colors of the skins thereof were measured by Chromameter CR2002 (manufactured by Minolta; Japan) per every one week. The difference of “L”, that is, “Δ L”, the amount of the increase of brightness of skin compared with those not applied with diluted solution, was measured. For reference, measurements for the cases that 3% kojic acid and vehicle (solvent) were applied were performed.

[5] = system: human skin; experiment: Test for application to human skin (patch test, CTFA Guideline); assay type: in vivo; details: for The number of volunteers having reaction, mark +: + = Intense erythema; for The number of volunteers having reaction, mark + / The number of volunteers having reaction, mark ++ / The number of volunteers having reaction, mark +++ / The number of volunteers having reaction, mark ± / The number of volunteers having reaction, mark −: 1% in patch base, n = 30; for The number of volunteers having reaction, mark ++: ++ = Intense erythema with edema; for The number of volunteers having reaction, mark +++: +++ = Intense erythema with edema &vesicle; for The number of volunteers having reaction, mark ±: ± = Mild erythema; for The number of volunteers having reaction, mark −: − = No visible reactions; for Average reaction (n = 30): {(grade × number of volunteers) × 100}/{maximum grade × total volunteers × number of test}, non-irritation standard value 1.0
Protocol: Each of the ester compounds of Examples 1˜6 were dissolved in a patch base shown in Table 8 to be 1% concentration respectively, to prepare test samples. 20 μl of each test sample was dropped in a Finn Chamber to make a patch, and the patch was attached to antebrachial skin (test region) and fixed with micro tape. The patch was attached for 24 hours, and after removing the patch, the test region was checked with marking pen, and then the region was observed after 1 and 24 hours.

[6] = 1% (w/v) solution 50 μl, UVA 15J/cm^2, observed 24, 48 and 72 hours
[7] = 1% (w/v) solution, UVA 15J/cm^2
[8] = 1% diluted solution (1,3-butyleneglycol:ethanol=7:3)

Molecule	Melanin generation ratio (%) [1]	Determination (skin irritation) [2]	P.I.I. [2]	Radiation Toxicity Index [3, 6]	Determination (radiation toxicity) [3, 7]	Increase of brightness of skin (Δ L) [4, 8]	The number of volunteers having reaction, mark + ([5]; 24 hours later)	The number of volunteers having reaction, mark ++ ([5]; 24 hours later)	The number of volunteers having reaction, mark +++ ([5]; 24 hours later)	The number of volunteers having reaction, mark ± ([5]; 24 hours later)	The number of volunteers having reaction, mark − ([5]; 24 hours later)	The number of volunteers having reaction, mark + ([5]; 48 hours later)	The number of volunteers having reaction, mark ++ ([5]; 48 hours later)	The number of volunteers having reaction, mark +++ ([5]; 48 hours later)	The number of volunteers having reaction, mark ± ([5]; 48 hours later)	The number of volunteers having reaction, mark − ([5]; 48 hours later)	Average reaction (n = 30) [5]	Determination (radiation toxicity) ([3]; in vivo)	Radiation Toxicity Index ([3]; in vivo)	Increase of brightness of skin (Δ L) ([4]; 3% kojic acid)
COc1cc(CC(=O)Oc2cc(C)ccc2C(C)C)cc(OC)c1OC [Example 1]	47.8%	No irritation	0.375	0	Radiation Non-Toxic	1.71 ± 0.25	0	0	0	2	28	0	0	0	0	30	0.83	–	–	–
COc1cc(/C=C/C(=O)Oc2cc(C)ccc2C(C)C)cc(OC)c1OC [Example 3, 5-methyl-2-(methylethyl)phenyl(2E)-3-(3,4,5-trimethoxyphenyl)-2-propanoate]	45.6%	No irritation	0.375	0	Radiation Non-Toxic	1.38 ± 0.11	0	0	0	0	30	0	0	0	0	30	0.00	–	–	–
COc1cc(CC(=O)O)cc(OC)c1OC [3,4,5-trimethoxy phenylacetic acid, reference compound]	95.8%	–	–	–	–	–	–	–	–	–	–	–	–	–	–	–	–	–	–	–
COc1cc(CCC(=O)Oc2cc(C(C)C)ccc2C)cc(OC)c1OC [Example 6, 2-methyl-5-(methylethyl)phenyl-3-(3,4,5-trimethoxyphenyl)propanoate]	48.1%	No irritation	0.315	0	Radiation Non-Toxic	1.49 ± 0.11	0	0	0	0	30	0	0	0	0	30	0.00	–	–	–
5-methyl-2-(methylethyl)phenyl-3-(3,4,5-trimethoxyphenyl)propanoate [Example 5]	50.0%	No irritation	0.375	–	–	1.40 ± 0.12	0	0	0	0	30	0	0	0	0	30	0.00	Radiation Non-Toxic	0	–
COc1cc(/C=C/C(=O)Oc2cc(C(C)C)ccc2C)cc(OC)c1OC [Example 4, 2-methyl-5-(methylethyl)phenyl(2E)-3-(3,4,5-trimethoxyphenyl)-2-propanoate]	58.9%	No irritation	0.350	0	Radiation Non-Toxic	1.22 ± 0.18	0	0	0	1	29	0	0	0	0	30	0.42	–	–	–
Cc1ccc(C(C)C)c(O)c1 [Thymol, thymol, reference compound]	94.5%	–	–	–	–	–	–	–	–	–	–	–	–	–	–	–	–	–	–	–
O=c1cc(CO)occ1O [Kojic acid, kojic acid, reference compound]	88.0%	–	–	–	–	–	–	–	–	–	–	–	–	–	–	–	–	–	–	0.99 ± 0.11
COc1cc(C=CC(=O)O)cc(OC)c1OC [3,4,5-trimethoxy cinnamic acid, reference compound]	96.3%	–	–	–	–	–	–	–	–	–	–	–	–	–	–	–	–	–	–	–
Cc1ccc(C(C)C)cc1O [Carvacrol, carvacrol, reference compound]	91.5%	–	–	–	–	–	–	–	–	–	–	–	–	–	–	–	–	–	–	–
COc1cc(CCC(=O)O)cc(OC)c1OC [3,4,5-trimethoxy hydrocinnamic acid, reference compound]	92.5%	–	–	–	–	–	–	–	–	–	–	–	–	–	–	–	–	–	–	–
2-methyl-5-(methylethylphenyl)-2-(3,4,5-trimethoxyphenyl)acetate [Example 2]	51.2%	No irritation	0.345	–	–	1.51 ± 0.13	0	0	0	0	30	0	0	0	1	29	0.42	Radiation Non-Toxic	0	–
